Source: US11345711B2, “8,9-dihydroimidazo[1,2-a]pyrimido[5,4-e]pyrimidin-5(6H)-ones” (IMPACT THERAPEUTICS (SHANGHAI), INC, priority 2016, dated 2022)
Like-named read-outs stand apart in the source and are kept apart here.

Experiments:
Wee1 (h) = Wee1 (h) (Homo sapiens, UniProt P30291); test: Wee1 kinase (h) detection method, [γ-33P]-ATP filter assay; assay type: biochemical
LoVo cells = test: MTT based cell viability assay on LoVo cells; settings: Homo sapiens, LoVo, 72 h, 3 d, read-out: IC50, growth inhibition of LoVo cells
In short: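 Inhibition of LoVo proliferation was derived as IC50 from a sigmoidal dose-response fit of cell survival. Readout was MTT (0.5 mg/mL, 4 h) with absorbance at 552/630/690 nm, after 3-day treatment at 37 °C. Eight-point series from 10 μM to 0.01 μM, DMSO control, 1% DMSO final.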

NCI-H1299 cells = test: MTT based cell viability assay on NCI-H1299 cells; settings: Homo sapiens, read-out: IC50, growth inhibition of NCI-H1299 cells
In short: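 NCI-H1299 cells (1000/well, settled overnight) were exposed for 3 d at 37 °C, 5% CO2, to an eight-point series of 10 μM to 0.01 μM plus DMSO blank, as prepared in DMSO (final DMSO 1‰). MTT (0.5 mg/mL, 4 h) was read at 552/630/690 nm. IC50 came from sigmoidal dose-response fits of survival.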

Chain of Wee1 (h) (P30291 whole entry): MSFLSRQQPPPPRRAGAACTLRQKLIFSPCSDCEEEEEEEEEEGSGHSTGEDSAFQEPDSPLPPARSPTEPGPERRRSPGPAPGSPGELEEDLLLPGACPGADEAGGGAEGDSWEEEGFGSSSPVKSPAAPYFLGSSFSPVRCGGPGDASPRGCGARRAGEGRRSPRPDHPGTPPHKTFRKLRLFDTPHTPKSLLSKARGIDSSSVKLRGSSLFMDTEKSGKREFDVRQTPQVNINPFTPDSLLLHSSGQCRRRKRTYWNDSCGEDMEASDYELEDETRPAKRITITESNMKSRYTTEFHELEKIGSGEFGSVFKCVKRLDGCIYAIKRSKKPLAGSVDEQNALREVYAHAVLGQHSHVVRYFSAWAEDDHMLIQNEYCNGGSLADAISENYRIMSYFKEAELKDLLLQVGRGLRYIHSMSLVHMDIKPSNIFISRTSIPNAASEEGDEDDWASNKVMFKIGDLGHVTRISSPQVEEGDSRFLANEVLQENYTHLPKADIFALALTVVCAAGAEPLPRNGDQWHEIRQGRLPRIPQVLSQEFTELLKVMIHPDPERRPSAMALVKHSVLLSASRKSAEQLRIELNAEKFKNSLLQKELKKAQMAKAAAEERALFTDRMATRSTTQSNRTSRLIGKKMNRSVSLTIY

Structure (SMILES)	Inh. (%) of Wee1 kinase enzyme activity (Wee1 (h); C 0.01 μm compound) [%]	Inh. (%) of Wee1 kinase enzyme activity (Wee1 (h); C 0.1 μm compound) [%]	Inh. (%) of Wee1 kinase enzyme activity (Wee1 (h); C 1 μm compound) [%]	IC50 (LoVo cells) [nM]	IC50 (NCI-H1299 cells; NCI-H1299, NCI-H1299 cells) [nM]	IC50 (NCI-H1299 cells; NCI-H1299 cells) [nM]
Cc1cc(Nc2ncc3c(n2)N2CCN=C2N(c2c(C)cccc2Cl)C3=O)ccc1N1CCN(C)CC1 [Example 81, 6-(2-Chloro-6-methylphenyl)-2-((3-methyl-4-(4-methylpiperazin-1-yl)phenyl)amino)-8,9-dihydroimidazo[1,2-a]pyrimido[5,4-e]pyrimidin-5(6H)-one]	7	72	89	135	310	
CN1CCN(c2ccc(Nc3ncc4c(n3)N3CCN=C3N(c3ccc(F)cc3Cl)C4=O)cc2)CC1 [Example 88, 6-(2-Chloro-4-fluorophenyl)-2-((4-(4-methylpiperazin-1-yl)phenyl)amino)-8,9-dihydroimidazo[1,2-a]pyrimido[5,4-e]pyrimidin-5(6H)-one]			75	> 100000		> 3000
CC(=O)N1Cc2cc(Nc3ncc4c(n3)N3CCN=C3N(c3c(F)cccc3Cl)C4=O)ccc2C2(CC2)C1 [Example 11, 6-(2-Chloro-6-fluorophenyl)-2-((2′-acetyl-2′,3′-dihydro-1′H-spiro[cyclopropane-1,4′-isoquinolin]-7′-yl)amino)-8,9-dihydroimidazo[1,2-a]pyrimido[5,4-e]pyrimidin-5(6H)-one]	23	85	97	101		705
Cc1cc(Nc2ncc3c(n2)N2CCN=C2N(c2c(C)cccc2F)C3=O)cc(C)c1N1CCN(C)CC1 [Example 169, 6-(2-Fluoro-6-methylphenyl)-2-((3,5-dimethyl-4-(4-methylpiperazin-1-yl)phenyl)amino)-8,9-dihydroimidazo[1,2-a]pyrimido[5,4-e]pyrimidin-5(6H)-one]	16	73	93	165	274	
CN1CCN(c2ccc(Nc3ncc4c(n3)N3CCN=C3N(c3c(F)cccc3Cl)C4=O)c(Cl)c2)CC1 [Example 38, 6-(2-Chloro-6-fluorophenyl)-2-((2-chloro-4-(4-methylpiperazin-1-yl)phenyl)amino)-8,9-dihydroimidazo[1,2-a]pyrimido[5,4-e]pyrimidin-5(6H)-one]			34	> 100000		> 10000
O=C1c2cnc(Nc3ccc(N4CCNCC4)c(Cl)c3)nc2N2CCN=C2N1c1c(Cl)cccc1Cl [Example 176, 6-(2,6-Dichlorophenyl)-2-((3-chloro-4-(piperazin-1-yl)phenyl)amino)-8,9-dihydroimidazo[1,2-a]pyrimido[5,4-e]pyrimidin-5(6H)-one]			96	73.6		126
CN1CCN(c2c(F)cc(Nc3ncc4c(n3)N3CCN=C3N(c3c(Cl)cccc3Cl)C4=O)cc2Cl)CC1 [Example 147, 6-(2,6-Dichlorophenyl)-2-((3-chloro-5-fluoro-4-(4-methylpiperazin-1-yl)phenyl)amino)-8,9-dihydroimidazo[1,2-a]pyrimido[5,4-e]pyrimidin-5(6H)-one]	42	86	96	91.1	209	
CN1CCN(c2ccc(Nc3ncc4c(n3)N3CCN=C3N(c3cccc(Cl)c3Cl)C4=O)cc2)CC1 [Example 91, 6-(2,3-Dichlorophenyl)-2-((4-(4-methylpiperazin-1-yl)phenyl)amino)-8,9-dihydroimidazo[1,2-a]pyrimido[5,4-e]pyrimidin-5(6H)-one]			75	185		2360
Cc1cc(Nc2ncc3c(n2)N2CCN=C2N(c2c(Cl)cccc2C(F)(F)F)C3=O)ccc1N1CCN(C)CC1 [Example 80, 6-(2-Chloro-6-(trifluoromethyl)phenyl)-2-((3-methyl-4-(4-methylpiperazin-1-yl)phenyl)amino)-8,9-dihydroimidazo[1,2-a]pyrimido[5,4-e]pyrimidin-5(6H)-one]			80	539	978	
CN1CCc2ccc(Nc3ncc4c(n3)N3CCN=C3N(c3c(F)cccc3Cl)C4=O)cc2C1 [Example 8, 6-(2-Chloro-6-fluorophenyl)-2-((2-methyl-1,2,3,4-tetrahydroisoquinolin-7-yl)amino)-8,9-dihydroimidazo[1,2-a]pyrimido[5,4-e]pyrimidin-5(6H)-one]	60	93	99	202		159
Cc1cc(Nc2ncc3c(n2)N2CCN=C2N(c2c(F)cccc2F)C3=O)cc(C)c1N1CCN(C)CC1 [Example 101, 6-(2,6-Difluorophenyl)-2-((3,5-dimethyl-4-(4-methylpiperazin-1-yl)phenyl)amino)-8,9-dihydroimidazo[1,2-a]pyrimido[5,4-e]pyrimidin-5(6H)-one]	22	70	95	95.4	214	
C[C@@H]1CN(c2ccc(Nc3ncc4c(n3)N3CCN=C3N(c3c(F)cccc3Cl)C4=O)cc2F)C[C@H](C)N1C [Example 45, 6-(2-Chloro-6-fluorophenyl)-2-((3-fluoro-4-((3S,5R)-3,4,5-trimethylpiperazin-1-yl)phenyl)amino)-8,9-dihydroimidazo[1,2-a]pyrimido[5,4-e]pyrimidin-5(6H)-one]	28	80	95	1180	616	
CN1CCN(c2ccc(Nc3ncc4c(n3)N3CCN=C3N(c3ccccn3)C4=O)cc2)CC1 [Example 97, 6-(Pyridin-2-yl)-2-((4-(4-methylpiperazin-1-yl)phenyl)amino)-8,9-dihydroimidazo[1,2-a]pyrimido[5,4-e]pyrimidin-5(6H)-one]			9	> 100000		> 10000
CN(C)C1CCN(c2c(Cl)cc(Nc3ncc4c(n3)N3CCN=C3N(c3c(Cl)cccc3Cl)C4=O)cc2Cl)CC1 [Example 142, 6-(2,6-Dichlorophenyl)-2-((3,5-dichloro-4-(4-(dimethylamino)piperidin-1-yl)phenyl)amino)-8,9-dihydroimidazo[1,2-a]pyrimido[5,4-e]pyrimidin-5(6H)-one]	22	75	95	51.4	109	
CN1CCN(c2ccc(Nc3ncc4c(n3)N3CCN=C3N(c3c(Cl)cccc3Cl)C4=O)cc2F)CC1 [Example 69, 6-(2,6-Dichlorophenyl)-2-((3-fluoro-4-(4-methylpiperazin-1-yl)phenyl)amino)-8,9-dihydroimidazo[1,2-a]pyrimido[5,4-e]pyrimidin-5(6H)-one]	24	73	97	105	426	
Cc1cc(Nc2ncc3c(n2)N2CCN=C2N(c2c(F)cccc2Cl)C3=O)ccc1N1CCC(N(C)C)CC1 [Example 119, 6-(2-Chloro-6-fluorophenyl)-2-((4-(4-(dimethylamino)piperidin-1-yl)-3-methylphenyl)amino)-8,9-dihydroimidazo[1,2-a]pyrimido[5,4-e]pyrimidin-5(6H)-one]	24	86	99	54.3	92.3	
CN1CCN(c2ccc(Nc3ncc4c(n3)N3CCN=C3N(c3c(Cl)cccc3Br)C4=O)cc2Br)CC1 [Example 162, 6-(2-Bromo-6-chlorophenyl)-2-((3-bromo-4-(4-methylpiperazin-1-yl)phenyl)amino)-8,9-dihydroimidazo[1,2-a]pyrimido[5,4-e]pyrimidin-5(6H)-one]	22	86	98	65.2		207
Cc1cc(Nc2ncc3c(n2)N2CCN=C2N(c2c(F)cccc2C(F)(F)F)C3=O)ccc1N1CCN(C)CC1 [Example 61, 6-(2-Fluoro-6-(trifluoromethyl)phenyl)-2-((3-methyl-4-(4-methylpiperazin-1-yl)phenyl)amino)-8,9-dihydroimidazo[1,2-a]pyrimido[5,4-e]pyrimidin-5(6H)-one]			82	757		1230
CN1CCN(c2ccc(Nc3ncc4c(n3)N3CCN=C3N(c3cccc(Cl)c3)C4=O)cc2)CC1 [Example 86, 6-(3-Chlorophenyl)-2-((4-(4-methylpiperazin-1-yl)phenyl)amino)-8,9-dihydroimidazo[1,2-a]pyrimido[5,4-e]pyrimidin-5(6H)-one]			13	> 100000		> 10000
